According to patent publication US9321776B2, “Isochromene derivatives as phoshoinositide 3-kinases inhibitors” (CHIESI FARMACEUTICI S.p.A., priority 2013, dated 2016):
Where a name gives a salt, the structure may show the parent alone.

Tests used:
Assay in all cases: PI3K enzyme inhibitory activity in the cell free assay (ADP-Glo Kinase Assay)
Assay type in all cases: biochemical
PI3Kδ = target: T1, PI3Kδ (Homo sapiens, UniProt O00329); details: human recombinant PI3Kδ, ATP 80 μM; read-out: PI3K delta inhibition
T1 construct: purchased Millipore Ltd (Billerica, Mass.)
T1 sequence (O00329 1-1044): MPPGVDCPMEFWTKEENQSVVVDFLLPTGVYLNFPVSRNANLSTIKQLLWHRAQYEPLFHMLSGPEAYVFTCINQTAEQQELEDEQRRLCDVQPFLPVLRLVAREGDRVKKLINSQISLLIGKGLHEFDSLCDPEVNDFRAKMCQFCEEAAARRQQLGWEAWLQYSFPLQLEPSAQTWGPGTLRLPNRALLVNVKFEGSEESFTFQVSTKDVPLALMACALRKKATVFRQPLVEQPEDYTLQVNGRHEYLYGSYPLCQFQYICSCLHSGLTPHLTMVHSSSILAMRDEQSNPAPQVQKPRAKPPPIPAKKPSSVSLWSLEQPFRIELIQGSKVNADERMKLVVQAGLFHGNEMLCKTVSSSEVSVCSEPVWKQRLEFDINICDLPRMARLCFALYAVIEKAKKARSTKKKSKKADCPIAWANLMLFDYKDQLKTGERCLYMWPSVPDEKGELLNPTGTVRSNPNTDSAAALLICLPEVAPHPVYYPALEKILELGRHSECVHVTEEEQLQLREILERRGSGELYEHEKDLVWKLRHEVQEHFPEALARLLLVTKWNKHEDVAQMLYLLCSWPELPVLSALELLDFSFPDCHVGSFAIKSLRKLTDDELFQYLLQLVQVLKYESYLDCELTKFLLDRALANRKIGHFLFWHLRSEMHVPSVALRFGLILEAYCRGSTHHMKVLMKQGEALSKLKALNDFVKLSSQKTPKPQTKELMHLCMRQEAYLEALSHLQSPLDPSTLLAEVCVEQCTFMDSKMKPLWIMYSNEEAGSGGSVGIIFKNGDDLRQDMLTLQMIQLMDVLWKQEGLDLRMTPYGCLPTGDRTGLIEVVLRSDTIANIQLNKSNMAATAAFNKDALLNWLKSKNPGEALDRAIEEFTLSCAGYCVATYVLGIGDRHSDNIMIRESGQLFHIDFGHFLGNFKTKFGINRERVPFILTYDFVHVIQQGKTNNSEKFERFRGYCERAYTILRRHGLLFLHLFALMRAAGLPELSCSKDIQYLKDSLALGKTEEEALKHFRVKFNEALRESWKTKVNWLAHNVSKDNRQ

PI3Kα = target: T2, PI3Kα (Homo sapiens, UniProt P42336); details: human recombinant PI3Kα, ATP 50 μM; read-out: PI3K alpha inhibition
T2 construct: purchased Millipore Ltd (Billerica, Mass.)
T2 sequence (P42336 whole entry): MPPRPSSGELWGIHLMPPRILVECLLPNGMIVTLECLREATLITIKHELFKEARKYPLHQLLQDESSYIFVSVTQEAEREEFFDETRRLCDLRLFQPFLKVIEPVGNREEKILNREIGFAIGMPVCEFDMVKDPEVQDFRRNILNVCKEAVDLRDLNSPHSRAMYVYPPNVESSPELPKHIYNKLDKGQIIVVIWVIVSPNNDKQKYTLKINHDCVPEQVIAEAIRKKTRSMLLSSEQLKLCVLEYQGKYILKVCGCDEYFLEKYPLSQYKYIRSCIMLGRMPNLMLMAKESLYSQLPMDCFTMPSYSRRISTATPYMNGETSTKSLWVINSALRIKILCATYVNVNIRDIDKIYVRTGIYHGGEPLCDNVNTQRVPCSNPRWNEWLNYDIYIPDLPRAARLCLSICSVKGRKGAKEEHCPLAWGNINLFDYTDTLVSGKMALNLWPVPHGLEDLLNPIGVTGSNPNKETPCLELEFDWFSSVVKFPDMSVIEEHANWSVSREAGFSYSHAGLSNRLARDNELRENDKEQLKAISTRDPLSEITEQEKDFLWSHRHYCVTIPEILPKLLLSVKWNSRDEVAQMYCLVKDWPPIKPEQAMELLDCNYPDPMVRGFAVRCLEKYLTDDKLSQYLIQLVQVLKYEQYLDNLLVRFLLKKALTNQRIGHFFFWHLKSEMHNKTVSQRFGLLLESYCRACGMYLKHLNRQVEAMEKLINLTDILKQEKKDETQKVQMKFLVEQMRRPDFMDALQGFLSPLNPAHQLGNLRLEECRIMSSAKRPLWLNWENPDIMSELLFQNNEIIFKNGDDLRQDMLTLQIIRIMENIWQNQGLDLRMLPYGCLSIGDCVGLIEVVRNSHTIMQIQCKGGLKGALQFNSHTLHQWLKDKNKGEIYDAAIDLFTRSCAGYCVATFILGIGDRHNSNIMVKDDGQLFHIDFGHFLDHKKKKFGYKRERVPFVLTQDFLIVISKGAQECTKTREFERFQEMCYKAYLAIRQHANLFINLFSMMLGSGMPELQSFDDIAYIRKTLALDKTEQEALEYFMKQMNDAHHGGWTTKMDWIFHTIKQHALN

PI3Kγ = target: T3, PI3Kγ (Homo sapiens, UniProt P48736); details: human recombinant PI3Kγ, ATP 30 μM; read-out: PI3K gamma inhibition
T3 construct: purchased Millipore Ltd (Billerica, Mass.)
T3 sequence (P48736 whole entry): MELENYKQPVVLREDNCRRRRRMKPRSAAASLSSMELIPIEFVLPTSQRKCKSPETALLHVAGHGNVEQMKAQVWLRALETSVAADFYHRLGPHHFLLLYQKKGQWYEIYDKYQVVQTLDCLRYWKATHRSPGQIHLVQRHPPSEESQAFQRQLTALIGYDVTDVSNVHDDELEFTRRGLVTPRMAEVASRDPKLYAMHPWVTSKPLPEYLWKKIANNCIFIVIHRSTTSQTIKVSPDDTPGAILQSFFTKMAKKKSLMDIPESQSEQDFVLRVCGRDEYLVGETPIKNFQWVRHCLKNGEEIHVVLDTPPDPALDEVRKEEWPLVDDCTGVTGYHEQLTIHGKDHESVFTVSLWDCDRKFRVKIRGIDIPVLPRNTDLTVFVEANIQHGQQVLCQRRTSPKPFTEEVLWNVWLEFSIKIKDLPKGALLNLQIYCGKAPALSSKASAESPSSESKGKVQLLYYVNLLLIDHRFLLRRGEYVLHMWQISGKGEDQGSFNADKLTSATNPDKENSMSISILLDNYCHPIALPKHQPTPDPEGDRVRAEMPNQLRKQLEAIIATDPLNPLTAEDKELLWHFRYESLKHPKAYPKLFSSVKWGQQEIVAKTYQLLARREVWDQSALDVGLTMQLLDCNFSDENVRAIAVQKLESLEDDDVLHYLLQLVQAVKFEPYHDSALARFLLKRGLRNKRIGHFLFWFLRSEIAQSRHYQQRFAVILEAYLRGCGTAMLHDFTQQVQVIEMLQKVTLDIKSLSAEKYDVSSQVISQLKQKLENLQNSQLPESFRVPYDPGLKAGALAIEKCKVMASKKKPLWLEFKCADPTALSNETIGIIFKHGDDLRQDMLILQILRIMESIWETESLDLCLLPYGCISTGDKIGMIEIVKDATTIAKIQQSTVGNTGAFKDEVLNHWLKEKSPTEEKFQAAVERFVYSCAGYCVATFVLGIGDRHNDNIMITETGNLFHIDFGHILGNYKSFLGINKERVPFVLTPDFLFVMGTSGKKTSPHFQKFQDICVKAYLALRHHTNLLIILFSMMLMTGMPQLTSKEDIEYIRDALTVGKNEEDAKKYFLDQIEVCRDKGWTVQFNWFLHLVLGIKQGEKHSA

PI3Kβ = target: T4, PI3Kβ (Homo sapiens, UniProt P42338); details: human recombinant PI3Kβ, ATP 100 μM; read-out: PI3K beta inhibition
T4 construct: purchased Millipore Ltd (Billerica, Mass.)
T4 sequence (P42338 whole entry): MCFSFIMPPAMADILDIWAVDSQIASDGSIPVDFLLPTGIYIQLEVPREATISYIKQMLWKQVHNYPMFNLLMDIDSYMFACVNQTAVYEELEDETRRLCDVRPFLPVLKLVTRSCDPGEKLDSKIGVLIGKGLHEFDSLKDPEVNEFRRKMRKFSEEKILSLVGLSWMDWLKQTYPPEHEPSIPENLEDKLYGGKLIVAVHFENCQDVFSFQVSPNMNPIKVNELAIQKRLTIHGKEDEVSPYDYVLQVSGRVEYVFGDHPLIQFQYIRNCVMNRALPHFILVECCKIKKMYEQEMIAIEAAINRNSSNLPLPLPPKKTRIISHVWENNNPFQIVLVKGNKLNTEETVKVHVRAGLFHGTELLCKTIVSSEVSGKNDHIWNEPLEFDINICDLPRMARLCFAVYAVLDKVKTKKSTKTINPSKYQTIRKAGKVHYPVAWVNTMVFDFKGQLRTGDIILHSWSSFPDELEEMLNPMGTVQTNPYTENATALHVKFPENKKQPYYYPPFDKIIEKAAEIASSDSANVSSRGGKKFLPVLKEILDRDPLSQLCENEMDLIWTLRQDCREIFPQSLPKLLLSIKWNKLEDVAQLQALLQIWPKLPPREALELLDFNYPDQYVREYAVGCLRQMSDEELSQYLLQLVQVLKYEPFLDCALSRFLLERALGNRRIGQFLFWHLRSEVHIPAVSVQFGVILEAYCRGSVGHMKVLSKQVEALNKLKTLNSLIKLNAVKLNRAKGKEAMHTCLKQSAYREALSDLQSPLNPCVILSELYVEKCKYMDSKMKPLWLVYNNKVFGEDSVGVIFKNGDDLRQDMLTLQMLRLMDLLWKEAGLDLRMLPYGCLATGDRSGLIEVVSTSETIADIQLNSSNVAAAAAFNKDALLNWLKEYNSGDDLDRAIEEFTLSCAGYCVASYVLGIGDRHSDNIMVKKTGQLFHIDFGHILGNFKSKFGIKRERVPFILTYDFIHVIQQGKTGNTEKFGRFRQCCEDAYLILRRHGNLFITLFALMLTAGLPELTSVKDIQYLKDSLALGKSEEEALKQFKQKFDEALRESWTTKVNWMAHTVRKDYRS

Row | IC50 (PI3Kδ) | IC50 (PI3Kα) | IC50 (PI3Kγ) | IC50 (PI3Kβ) | Compound
1 | 10 to 1000 nM | > 1000 nM | > 1000 nM | 10 to 1000 nM | CC(c1oc(=O)c2ccccc2c1C1=CCN(C)CC1)n1nc(-c2cc(O)cc(C(F)(F)F)c2)c2c(N)ncnc21 (stereo not shown) [Example 155, 3-(1-(4-amino-3-(3-hydroxy-5-(trifluoromethyl)phenyl)-1H-pyrazolo[3,4-d]pyrimidin-1-yl)ethyl)-4-(1-methyl-1,2,3,6-tetrahydropyridin-4-yl)-1H-isochromen-1-one formate]
2 | < 10 nM | 10 to 1000 nM | 10 to 1000 nM | 10 to 1000 nM | CC(c1oc(=O)c2ccccc2c1-c1ccc(CN2CCCCC2)s1)n1nc(-c2cc(O)cc(F)c2)c2c(N)ncnc21 (stereo not shown) [Example 68, 3-(1-(4-amino-3-(3-fluoro-5-hydroxyphenyl)-1H-pyrazolo[3,4-d]pyrimidin-1-yl)ethyl)-4-(5-(piperidin-1-ylmethyl)thiophen-2-yl)-1H-isochromen-1-one hydrochloride]
3 | < 10 nM | > 1000 nM | 10 to 1000 nM | 10 to 1000 nM | CC(c1oc(=O)c2ccccc2c1C1=CCCN(Cc2ccccc2)C1)n1nc(-c2cc(O)cc(F)c2)c2c(N)ncnc21 (stereo not shown) [Example 169, 3-(1-(4-amino-3-(3-fluoro-5-hydroxyphenyl)-1H-pyrazolo[3,4-d]pyrimidin-1-yl)ethyl)-4-(1-benzyl-1,2,5,6-tetrahydropyridin-3-yl)-1H-isochromen-1-one hydrochloride]
4 | < 10 nM | > 1000 nM | > 1000 nM | 10 to 1000 nM | CC(Nc1ncnc2[nH]cnc12)c1oc(=O)c2ccccc2c1C1=CCNCC1 (stereo not shown) [Example 23, 3-(1-(9H-Purin-6-ylamino)ethyl)-4-(1,2,3,6-tetrahydropyridin-4-yl)-1H-isochromen-1-one hydrochloride]
